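Cultured in 96-well plates, cells were exposed to test compound for 48 hours across five concentrations. At the GI50, growth is halved.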 The source made the active and inactive calls. Rule as the data show it: active = GI50 up to about 1.1 µM and inactive = higher. Where a SMILES comes first, the peptide text is derived from it. The star is where a group is joined. Boc = CC(C)(C)OC(=O)*
Key:
Assay in all cases: NCI tumour cell line growth inhibition, 48 h
[1] = test system: CCRF-CEM
[2] = test system: NCI/ADR-RES
[3] = test system: HOP-62
[4] = test system: LOX IMVI
[5] = test system: HOP-92
[6] = test system: OVCAR-4
[7] = test system: A549
[8] = test system: OVCAR-5
[9] = test system: SR
[10] = test system: SN12C
[11] = test system: SK-OV-3
[12] = test system: RPMI-8226
[13] = test system: HT-29
[14] = test system: 786-0
[15] = test system: RXF 393
[16] = test system: SK-MEL-28
[17] = test system: HCT-116
[18] = test system: SF-539
[19] = test system: MCF7
[20] = test system: NCI-H522

With `CCOC(=O)NC(Nc1ccc(S(=O)(=O)Nc2ccc(OC)nn2)cc1)(C(F)(F)F)C(F)(F)F` the GI50 [1] was 26.5 µM (inactive), the GI50 [2] was 23.9 µM (inactive) and the GI50 [3] was 25.8 µM (inactive). For the same molecule, the GI50 [4] was 29.5 µM (inactive), the GI50 [5] was 28.5 µM (inactive) and the GI50 [6] was 26.7 µM (inactive). For the same molecule, the GI50 [7] was 35.3 µM (inactive), the GI50 [8] was 32.2 µM (inactive) and the GI50 [9] was 24.7 µM (inactive). The GI50 [10] was 25.4 µM (inactive), the GI50 [11] was 52 µM (inactive) and the GI50 [12] was 20.6 µM (inactive). For the same molecule, the GI50 [13] was 39.1 µM (inactive), the GI50 [14] was 20.9 µM (inactive) and the GI50 [15] was 18.2 µM (inactive). The GI50 [16] was 24.9 µM (inactive), the GI50 [17] was 22.6 µM (inactive) and the GI50 [18] was 20.6 µM (inactive). For the same molecule, the GI50 [19] was 36.4 µM (inactive).
With `CCOC(=O)C(CC(C)C)NC(=O)C(Cc1ccccc1)NC(=O)CNC(=O)OC(C)(C)C` (stereo not drawn) (Boc-Gly-Phe-Leu-OEt; configuration not given here) the GI50 [1] was 16.6 µM (inactive), the GI50 [2] was 80.2 µM (inactive) and the GI50 [3] was 28.2 µM (inactive). For the same molecule, the GI50 [4] was 18.2 µM (inactive), the GI50 [5] was 25.2 µM (inactive) and the GI50 [6] was 36.9 µM (inactive). For the same molecule, the GI50 [7] was 18.7 µM (inactive), the GI50 [20] was 19.1 µM (inactive) and the GI50 [9] was 15.8 µM (inactive). The GI50 [10] was 19.2 µM (inactive), the GI50 [11] was 20.8 µM (inactive) and the GI50 [12] was 20.9 µM (inactive). The GI50 [13] was 18.1 µM (inactive), the GI50 [14] was 20.9 µM (inactive) and the GI50 [15] was 25.8 µM (inactive). The GI50 [16] was 16.6 µM (inactive), the GI50 [17] was 17.9 µM (inactive) and the GI50 [18] was 13.5 µM (inactive). The GI50 [19] was 2.44 µM (inactive).
With `O=C(Nc1ccccc1)c1cc(S(=O)(=O)n2ccnc2O)c(S)cc1Cl` the GI50 [1] was > 100 µM (inactive), the GI50 [2] was > 100 µM (inactive) and the GI50 [3] was > 100 µM (inactive). The GI50 [4] was > 100 µM (inactive), the GI50 [5] was > 100 µM (inactive) and the GI50 [7] was > 100 µM (inactive). For the same molecule, the GI50 [20] was > 100 µM (inactive), the GI50 [8] was > 100 µM (inactive) and the GI50 [9] was > 100 µM (inactive). For the same molecule, the GI50 [10] was > 100 µM (inactive), the GI50 [12] was > 100 µM (inactive) and the GI50 [13] was > 100 µM (inactive). The GI50 [14] was > 100 µM (inactive), the GI50 [15] was > 100 µM (inactive) and the GI50 [16] was > 100 µM (inactive). The GI50 [17] was > 100 µM (inactive), the GI50 [18] was > 100 µM (inactive) and the GI50 [19] was > 100 µM (inactive).
For `c1ccc(/C(=N/Nc2ccccn2)c2ncccn2)cc1`, the GI50 [1] was < 0.0183 µM (active), the GI50 [2] was 1.43 µM (inactive) and the GI50 [3] was 3.31 µM (inactive). The GI50 [5] was 2.96 µM (inactive), the GI50 [6] was 1.28 µM (inactive) and the GI50 [7] was 3.62 µM (inactive). For the same molecule, the GI50 [20] was < 0.0172 µM (active), the GI50 [8] was 2.77 µM (inactive) and the GI50 [9] was 0.929 µM (active). The GI50 [10] was 0.488 µM (active), the GI50 [11] was 2.3 µM (inactive) and the GI50 [12] was 1.39 µM (inactive). For the same molecule, the GI50 [13] was < 0.01 µM (active), the GI50 [14] was 0.8 µM (active) and the GI50 [15] was 11.3 µM (inactive). For the same molecule, the GI50 [16] was 3.93 µM (inactive), the GI50 [17] was 0.524 µM (active) and the GI50 [18] was 3.52 µM (inactive). For the same molecule, the GI50 [19] was 0.175 µM (active).
In the case of `CCCCOCCOCCOC1=CC(=O)c2c(O)ccc(O)c2C1=O`, the GI50 [1] is reported as 2.14 µM (inactive), the GI50 [2] is reported as 2.14 µM (inactive) and the GI50 [3] is reported as 1.79 µM (inactive). The GI50 [4] was 1.86 µM (inactive), the GI50 [5] was 2.9 µM (inactive) and the GI50 [6] was 1.94 µM (inactive). For the same molecule, the GI50 [7] was 1.8 µM (inactive), the GI50 [20] was 1.63 µM (inactive) and the GI50 [9] was 2.7 µM (inactive). The GI50 [10] was 1.82 µM (inactive), the GI50 [11] was > 10 µM (inactive) and the GI50 [12] was 2.4 µM (inactive). The GI50 [14] was 1.6 µM (inactive), the GI50 [15] was 1.94 µM (inactive) and the GI50 [16] was 1.53 µM (inactive). The GI50 [17] was 1.76 µM (inactive), the GI50 [18] was 2.03 µM (inactive) and the GI50 [19] was 1.75 µM (inactive).
For `CCOC(=O)c1cn(C)c(=S)n2c1nc1ccccc12`, the GI50 [1] was 48.2 µM (inactive), the GI50 [2] was 37.8 µM (inactive) and the GI50 [3] was > 100 µM (inactive). For the same molecule, the GI50 [4] was 56 µM (inactive), the GI50 [5] was 42.8 µM (inactive) and the GI50 [6] was 34.8 µM (inactive). The GI50 [7] was 62.1 µM (inactive), the GI50 [8] was > 100 µM (inactive) and the GI50 [9] was 62.5 µM (inactive). For the same molecule, the GI50 [10] was > 100 µM (inactive), the GI50 [12] was 30.9 µM (inactive) and the GI50 [14] was 74.1 µM (inactive). The GI50 [15] was > 100 µM (inactive), the GI50 [16] was > 100 µM (inactive) and the GI50 [17] was 54.3 µM (inactive). For the same molecule, the GI50 [18] was > 100 µM (inactive) and the GI50 [19] was 44.6 µM (inactive).
`Cc1oc(N)c(S(=O)(=O)c2ccc(Cl)cc2)c1C` was tested, and the GI50 [1] was 78.9 µM (inactive), the GI50 [2] was 34.9 µM (inactive) and the GI50 [5] was > 100 µM (inactive). The GI50 [6] was 21.7 µM (inactive), the GI50 [7] was 34.4 µM (inactive) and the GI50 [20] was 30 µM (inactive). For the same molecule, the GI50 [8] was > 100 µM (inactive), the GI50 [9] was 86.3 µM (inactive) and the GI50 [11] was 42.6 µM (inactive). For the same molecule, the GI50 [12] was 40.2 µM (inactive), the GI50 [13] was 54.3 µM (inactive) and the GI50 [14] was 73.8 µM (inactive). For the same molecule, the GI50 [15] was 30.8 µM (inactive), the GI50 [16] was > 100 µM (inactive) and the GI50 [17] was 39.4 µM (inactive). For the same molecule, the GI50 [18] was 25.8 µM (inactive) and the GI50 [19] was 50.4 µM (inactive).
In the case of `Cc1sc2nc(-c3ccc([N+](=O)[O-])cc3)c(/C=N/N=C(N)N)n2c1C`, the GI50 [1] is reported as 0.206 µM (active), the GI50 [2] is reported as 2.76 µM (inactive) and the GI50 [3] is reported as 0.689 µM (active). For the same molecule, the GI50 [4] was 0.398 µM (active), the GI50 [5] was 1.33 µM (inactive) and the GI50 [7] was 1.45 µM (inactive). For the same molecule, the GI50 [20] was 1.32 µM (inactive), the GI50 [8] was 1.36 µM (inactive) and the GI50 [9] was 0.217 µM (active). The GI50 [10] was 1.33 µM (inactive), the GI50 [11] was 1.7 µM (inactive) and the GI50 [12] was 0.468 µM (active). For the same molecule, the GI50 [13] was 0.432 µM (active), the GI50 [14] was 0.221 µM (active) and the GI50 [15] was 0.942 µM (active). The GI50 [16] was 0.361 µM (active), the GI50 [17] was 0.173 µM (active) and the GI50 [18] was 1.72 µM (inactive). For the same molecule, the GI50 [19] was 0.555 µM (active).

Reference: ChEMBL document CHEMBL1201862, “PubChem BioAssay data set” (2004)
